Assay results reported in patent US9638702B2 (priority 2001, dated 2017).
Read-outs that look alike come from different tables or passages of the source.

Key:
[1] = type: physicochemical
[2] = type: physicochemical; remark: listed apart in the source

With poly-L-lysine the absorbance plateau ([1]; pH 7) was “approximately 0.22”, the absorbance plateau ([1]; pH 11) was “approximately 0.12” and the CD minimum ([2]; pH 7) was “approximately 205 nm”. The CD minimum ([2]; pH 11) was “approximately 216 nm”.
